ChEMBL document CHEMBL1201862, “PubChem BioAssay data set” (2004)
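A five-concentration, 48-hour dose response in 96-well plates underlies each endpoint, interpolated linearly between surrounding concentrations. GI50: concentration for 50% inhibition of growth.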 Calls of active or inactive are those of the source. No stated cut-off is given here; in the data, active = GI50 up to about 1.1 µM and inactive = higher.

What was measured:
Assay in all cases: NCI-60 cell line screen, 48 h
DMS-114 = tested on: DMS-114
M19-MEL = tested on: M19-MEL
XF498 = tested on: XF498
LXFL 529 = tested on: LXFL 529
SNB-78 = tested on: SNB-78
KM-20L2 = tested on: KM-20L2
RXF 631 = tested on: RXF 631
DMS-273 = tested on: DMS-273
HOP-18 = tested on: HOP-18

Measured: GI50

C/C(=N\N)C(CN(C)C)C(c1ccccc1)c1c(O)c2ccccc2oc1=O (stereo not drawn)
inactive: DMS-114 51.9 µM | M19-MEL 95.7 µM | XF498 36.4 µM | LXFL 529 > 100 µM | SNB-78 > 100 µM | KM-20L2 > 100 µM | RXF 631 > 100 µM | DMS-273 > 100 µM | HOP-18 > 100 µM

CC(C)Cc1ccc(C(C)/C=C2\CCC(CN3CCCC3)C2=O)cc1 (stereo not drawn)
inactive: DMS-114 3.8 µM | M19-MEL 3.84 µM | XF498 8.73 µM | LXFL 529 2.15 µM | SNB-78 19.4 µM | KM-20L2 14.4 µM | RXF 631 20.2 µM | DMS-273 4.5 µM | HOP-18 19.2 µM

CCOC(=O)NC(=O)c1c[nH]c(=O)[nH]c1=O
inactive: DMS-114 > 100 µM | M19-MEL > 100 µM | XF498 > 100 µM | LXFL 529 > 100 µM | SNB-78 > 100 µM | KM-20L2 > 100 µM | RXF 631 > 100 µM | DMS-273 > 100 µM | HOP-18 > 100 µM

O=C(CC1(O)C(=O)Nc2c(Cl)cc(Cl)cc21)c1ccc2ccccc2c1 (stereo not drawn)
inactive: DMS-114 4.69 µM | M19-MEL 4.49 µM | XF498 11.6 µM | LXFL 529 9.16 µM | SNB-78 16.8 µM | KM-20L2 3.56 µM | RXF 631 7.08 µM | DMS-273 3.72 µM | HOP-18 13.3 µM

CCOC(=O)C1N(S(=O)(=O)c2ccc(C)cc2)CCC12C(c1ccc(OC)c(OC)c1)=Nc1ccccc12 (stereo not drawn)
inactive: DMS-114 > 100 µM | M19-MEL > 100 µM | XF498 30.1 µM | LXFL 529 > 100 µM | SNB-78 > 100 µM | KM-20L2 > 100 µM | RXF 631 > 100 µM | DMS-273 > 100 µM | HOP-18 > 100 µM

COc1ccc2c(c1)CC1c3c(ccc(OC)c3O)CC2N1C (stereo not drawn)
inactive: DMS-114 19.7 µM | M19-MEL 23 µM | XF498 21.3 µM | LXFL 529 18.3 µM | SNB-78 24.3 µM | KM-20L2 28.4 µM | RXF 631 22.6 µM | DMS-273 22.4 µM | HOP-18 71.1 µM

CC(C)N(C(=O)c1cccc(C(=O)N(C(C)C)C(C)C)c1)C(C)C
inactive: DMS-114 > 100 µM | M19-MEL > 100 µM | XF498 > 100 µM | LXFL 529 > 100 µM | SNB-78 > 100 µM | KM-20L2 > 100 µM | RXF 631 > 100 µM | DMS-273 > 100 µM | HOP-18 > 100 µM
